{"source": "patent US10060907B2", "about": "“Redoxindicators” (priority 2014, dated 2018)", "key": {"[1]": {"experiment": "Solubility in water", "type": "physicochemical"}, "[2]": {"experiment": "Cyclic voltammetry (CV) studies of the redoxindicators", "type": "physicochemical", "settings": "vs Ag/AgCl, 0.9% NaCl at pH 7, phosphate buffer, Au working electrode, scan rate 100 mVs^−1", "procedure": "The CVs of the compounds synthesized in example 6-7 were recorded vs. the Ag/AgCl reference electrode in a phosphate buffer pH 7 (Table 4).\nE/mV vs Ag/AgCl, 0.9% NaCl at pH 7, phosphate buffer, Au working electrode, scan rate 100 mVs^−1"}, "[3]": {"experiment": "Fluorometric determination of NADH", "settings": "20 μM indicator, 4 μM NADH, 10 mM PIPES pH 7, excitation at 535 nm", "procedure": "The following were mixed in a cuvette: 2 μL of 10 mM solution of an indicator (1-methyl-3-[(E)-2-(1,3,3-trimethyl-3H-indolium-2-yl)ethenyl]quinolinium iodide trifluoromethanesulfonate) in distilled water, 1000 μL of 10 mM PIPES buffer pH 7, 0.5-4 μL of 1 mM NADH solution in distilled water. The mixture was incubated for 30 min at room temperature. Fluorescence (550-800 nm) was recorded using excitation at 535 nm. (FIG. 10, 11)."}, "[4]": {"experiment": "Reaction of an indicator with NADH, UV/Vis of the reduced form", "type": "physicochemical", "settings": "for UV/Vis reduced form, λmax after reduction with NADH: 50 mM phosphate buffer pH = 7; for UV-Vis λmax after reduction with NADH: water", "procedure": "The following were mixed in a cuvette: 50 μL of 10 mM solution of an indicator (1-methyl-3-[(E)-2-(1,3,3-trimethyl-3H-indolium-2-yl)ethenyl]quinolinium iodide trifluoromethanesulfonate) in distilled water, 950 μL of 50 mM phosphate buffer pH 7, 2 μL of 10 mM NADH solution in distilled water. A UV/Vis spectrum (400-1000 nm) was recorded every 7.5 sec for a 1 min after addition of NADH (resolution 2 nm) (FIG. 1). No further color change could be measured after 52.5 sec."}, "[5]": {"tested_on": "HEK-293 cells", "experiment": "Cell viability testing, confocal fluorescence microscopy", "type": "cell-based", "settings": "20 μM", "procedure": "Viable HEK-293 cells and 4% paraformaldehyde killed HEK-293 cells were incubated with 1-methyl-3-[(E)-2-(1,3,3-trimethyl-3H-indolium-2-yl)ethenyl]quinolinium iodide trifluoromethanesulfonate (20 μM) in 10 mM PBS pH 7 at 37 C. Confocal fluorescence microscope images were recorded at 611 nm using excitation at 561 nm. […] The resulting cells retained viability for at least 24 h."}, "[6]": {"experiment": "Evaluation of extinction coefficient under pseudo-first-order reaction conditions", "type": "physicochemical", "settings": "535 nm, 50 mM phosphate buffer pH 7, from slope of ΔAbs vs initial NADH", "procedure": "The following were mixed in a cuvette: 100 μL of 10 mM solution of 1-methyl-3-[(E)-2-(1,3,3-trimethyl-3H-indolium-2-yl)ethenyl]quinolinium iodide trifluoromethanesulfonate in distilled water, 900 μL of 50 mM phosphate buffer pH 7, 1-3 μL of 10 mM NADH in distilled water. Change in absorbance at 535 nm was recorded after 5 min, when no further color change could be measured (FIG. 3, 9).\nThis ε value is nine times greater than those of the reduced form of MTT (Czerlinski, G. H.; et al; Journal of Biochemical and Biophysical Methods 1988, 15, 241)."}, "[7]": {"experiment": "Evaluation of the reaction rates with ascorbate", "settings": "sodium ascorbate", "procedure": "(§1) Two solutions of the redoxindicator 1-methyl-6-((E)-3-oxo-3-phenyl-propenyl)-quinolinium methosulfate (5.00 mg, 0.013 mmol) in 1.00 ml water were each treated with an excess of NADH (disodium salt) or sodium ascorbate, respectively. […] After a few minutes, a larger amount of an orange precipitate was obtained, probably the insoluble dihydrochinoline. […] Even after 16 h no precipitate was found.\n(§2) Two solutions of the redoxindicators 1-methyl-3-[(E)-2-(1,3,3-trimethyl-3H-indolium-2-yl)ethenyl]quinolinium iodide trifluoromethanesulfonate (0.005 mmol) in 1.00 ml of 50 mM phosphate buffer pH 7 were each treated with 2 μL of 10 mM NADH (disodium salt) or sodium ascorbate solutions in distilled water, respectively. The absorbance at 535 nm was measured in relation to time (FIG. 3)."}, "[8]": {"experiment": "Evaluation of the reaction rates with NADH", "settings": "for Colour change of the solution treated with NADH: NADH (disodium salt); for Turnover rates with NADH compared with ascorbate: NADH vs ascorbate", "procedure": "as §1, §2"}, "[9]": {"tested_on": "glucose dehydrogenase 2 (GlucDH2)", "experiment": "Determination of glucose with GlucDH2/NAD and an indicator", "type": "biochemical", "settings": "0.5 mM indicator, NAD/GlucDH2, glucose 385 μM, 100 mM phosphate buffer pH 7", "procedure": "The following were mixed in a cuvette: 500 μL of 1.0 mM solution of an indicator (1-methyl-6-[(E)-2-(1,3,3-trimethyl-3H-indolium-2-yl)vinyl]quinolinium iodide trifluoromethanesulfonate) in 100 mM phosphate buffer pH 7, 500 μL of glucose dehydrogenase 2 (GlucDH2) solution (in 100 mM phosphate buffer pH 7 containing 4.0 mM NAD^+) at a concentration of 491 U/ml, 40 μL of 10 mM solution of glucose in distilled water. A UV/Vis spectrum (300-1000 nm) was recorded every 1 min for a 10 min after addition of glucose (resolution 1 nm) (FIG. 4)."}}, "note": "Like-named read-outs stand apart in the source and are kept apart here."}
{"compound": "C[N+]1=C(/C=C/c2c[n+](C)cc3ccccc23)C(C)(C)c2ccccc21", "values": [{"measurement": "solubility", "setting": "[1]", "value": "≥ 25", "unit": "mM"}]}
{"compound": "C[N+]1=C(/C=C/c2ccc3c(ccc[n+]3C)c2)C(C)(C)c2ccccc21.O=S(=O)([O-])C(F)(F)F.[I-]", "note": "[drawing 52]", "values": [{"measurement": "Reduction potential", "setting": "[2]", "value": "−634", "unit": "mV"}]}
{"compound": "C[N+]1=C(/C=C/c2ccc[n+](C)c2)C(C)(C)c2ccccc21.O=S(=O)([O-])C(F)(F)F.[I-]", "values": [{"measurement": "Reduction potential", "setting": "[2]", "value": "−564", "unit": "mV"}]}
{"compound": "C[N+]1=C(/C=C/c2ccc[n+](C)c2)C(C)(C)c2ccccc21", "values": [{"measurement": "solubility", "setting": "[1]", "value": "≥ 114", "unit": "mM"}]}
{"compound": "CC[n+]1cc(/C=C/C2=[N+](C)c3ccccc3C2(C)C)c2ccccc2c1.O=S(=O)([O-])C(F)(F)F.[I-]", "values": [{"measurement": "Reduction potential", "setting": "[2]", "value": "−454", "unit": "mV"}]}
{"compound": "C[N+]1=C(/C=C/c2cc3ccccc3[n+](C)c2)C(C)(C)c2ccccc21.O=S(=O)([O-])C(F)(F)F.[I-]", "note": "[XXIV, 1-methyl-3-[(E)-2-(1,3,3-trimethyl-3H-indolium-2-yl)ethenyl]quinolinium iodide trifluoromethanesulfonate]", "values": [{"measurement": "Fluorescence emission λmax after adding NADH", "setting": "[3]", "value": 560, "unit": "nm"}, {"measurement": "Time after addition of NADH after which no further color change could be measured", "setting": "[4]; 0.5 mM indicator, 20 μM NADH, 50 mM phosphate buffer pH 7", "value": 52.5, "unit": "s"}, {"measurement": "UV/Vis reduced form, λmax after reduction with NADH", "setting": "[4]", "value": 535, "unit": "nm"}, {"measurement": "Fluorescence intensity, viable vs dead HEK-293 cells", "setting": "[5]", "value": "much higher in viable cells than in dead cells"}, {"measurement": "Fluorescence intensity in viable HEK-293 cells", "setting": "[5]; 10 mM PBS pH 7, 37 C, 611 nm, excitation 561 nm", "value": "fluorescence intensity was enhanced"}, {"measurement": "Cellular uptake in viable HEK-293 cell", "setting": "[5]; confocal image", "value": "showed cellular uptake"}, {"measurement": "Fluorescence intensity in paraformaldehyde killed HEK-293 cells", "setting": "[5]; 4% paraformaldehyde killed cells, 10 mM PBS pH 7, 37 C", "value": "did not show enhancement in fluorescence intensity"}, {"measurement": "Time for which treated cells retained viability", "setting": "[5]; viable HEK-293 cells", "value": "at least 24 h"}, {"measurement": "solubility", "setting": "[1]", "value": "≥ 10", "unit": "mM"}, {"measurement": "Extinction coefficient ε of the reduced form", "setting": "[6]", "value": 69.3, "unit": "mM⁻¹ cm⁻¹"}, {"measurement": "Colour change of the solution treated with ascorbate", "setting": "[7]", "value": "did not change color"}, {"measurement": "Colour change of the solution treated with NADH", "setting": "[8]", "value": "changed rapidly from nearly colorless to pink"}, {"measurement": "Turnover rates with NADH compared with ascorbate", "setting": "[8]", "value": "much higher than with ascorbate"}]}
{"compound": "C[N+]1=C(/C=C/c2cccc3c2ncc[n+]3C)C(C)(C)c2ccccc21.O=S(=O)([O-])C(F)(F)F.[I-]", "values": [{"measurement": "UV-Vis λmax after reduction with NADH", "setting": "[4]", "value": 535, "unit": "nm"}, {"measurement": "solubility", "setting": "[1]", "value": "≥ 9", "unit": "mM"}]}
{"compound": "CCOc1cccc2c1nc1c(/C=C/C3=[N+](C)c4ccccc4C3(C)C)cccc1[n+]2C.[Cl-].[Cl-]", "note": "[9-ethoxy-10-methyl-1-[(E)-2-(1,3,3-trimethyl-3H-indolium-2-yl)vinyl]phenazinium]", "values": [{"measurement": "solubility", "setting": "[1]", "value": "≥ 7", "unit": "mM"}]}
{"compound": "CC[n+]1cc(/C=C2\\CCC[N+]3=C2C(C)(C)c2ccccc23)cc2ccccc21", "values": [{"measurement": "solubility", "setting": "[1]; Cl^− form", "value": "≥ 0.3", "unit": "mM"}]}
{"compound": "CC[n+]1cc(/C=C/C2=[N+](C)c3ccccc3C2(C)C)cc2ccccc21", "values": [{"measurement": "solubility", "setting": "[1]", "value": "≥ 4", "unit": "mM"}]}
{"compound": "C[N+]1=C(/C=C/c2cc3ccccc3[n+](C)c2)C(C)(C)c2ccccc21.O=S(=O)([O-])C(F)(F)F.[I-]", "note": "[drawing 50]", "values": [{"measurement": "Reduction potential", "setting": "[2]", "value": "−534", "unit": "mV"}]}
{"compound": "CC[n+]1cc(/C=C/C2=[N+](C)c3ccccc3C2(C)C)cc2ccccc21.O=S(=O)([O-])C(F)(F)F.[I-]", "values": [{"measurement": "Reduction potential", "setting": "[2]", "value": "−524", "unit": "mV"}]}
{"compound": "C[N+]1=C(/C=C/c2ccc3c(ccc[n+]3C)c2)C(C)(C)c2ccccc21.O=S(=O)([O-])C(F)(F)F.[I-]", "note": "[drawing 35, 1-methyl-6-[(E)-2-(1,3,3-trimethyl-3H-indolium-2-yl)vinyl]quinolinium iodide trifluoromethanesulfonate]", "values": [{"measurement": "UV/Vis reduced form, λmax after reduction with NADH", "setting": "[4]", "value": 517, "unit": "nm"}, {"measurement": "solubility", "setting": "[1]", "value": "≥ 15", "unit": "mM"}, {"measurement": "Absorbance λmax after adding glucose", "setting": "[9]", "value": 516, "unit": "nm"}]}
{"compound": "COS(=O)(=O)[O-].C[n+]1cccc2cc(/C=C/C(=O)c3ccccc3)ccc21", "note": "[MOPPQ, 1-Methyl-6-((E)-3-oxo-3-phenyl-propenyl)-quinolinium methosulfate]", "values": [{"measurement": "Colour change of the solution treated with ascorbate", "setting": "[7]", "value": "showed only a pale orange color"}, {"measurement": "Colour change of the solution treated with NADH", "setting": "[8]", "value": "changed rapidly from nearly colorless to orange"}, {"measurement": "Turnover rates with NADH compared with ascorbate", "setting": "[8]", "value": "much higher than with ascorbate"}]}
{"compound": "C[N+]1=C(/C=C/c2ccc(-c3ccc(/C=C/C4=[N+](C)c5ccccc5C4(C)C)c[n+]3C)[n+](C)c2)C(C)(C)c2ccccc21.O=S(=O)([O-])C(F)(F)F.O=S(=O)([O-])C(F)(F)F.[I-].[I-]", "values": [{"measurement": "solubility", "setting": "[1]", "value": "≥ 15", "unit": "mM"}]}
{"compound": "C[N+]1=C(/C=C/c2ccc3c(c2)nc2ccccc2[n+]3C)C(C)(C)c2ccccc21.O=S(=O)([O-])C(F)(F)F.[I-]", "values": [{"measurement": "UV-Vis λmax after reduction with NADH", "setting": "[4]", "value": "LC-MS m/z 379.3 (M^+) HRMS m/z 378.1970 ([M − H]^+) UV-Vis (water) after reduction with NADH: λmax 740 nm;"}]}
{"compound": "C[N+]1=C(/C=C/c2c[n+](C)cc3ccccc23)C(C)(C)c2ccccc21.O=S(=O)([O-])C(F)(F)F.[I-]", "values": [{"measurement": "Reduction potential", "setting": "[2]", "value": "−424", "unit": "mV"}]}
{"compound": "C[N+]1=C(/C=C/c2cccc3c2nc2ccccc2[n+]3C)C(C)(C)c2ccccc21.O=S(=O)([O-])C(F)(F)F.[I-]", "values": [{"measurement": "solubility", "setting": "[1]", "value": "≥ 4", "unit": "mM"}]}
